Read-outs that look alike come from different tables or passages of the source. A value given as a limit tells only on which side of the number the result lay.

This is an account of results in US9850183B2, “Conjugates derived from non-steroidal anti-inflammatory drugs and methods of use thereof in imaging” (Reiley Pharmaceuticals, Inc., priority 2014, dated 2017).

The target of one test is T1, human COX-2 (Homo sapiens, UniProt P35354).
T1 construct: purchased Cayman Chemical Co., Ann Arbor, Mich., USA 701080
T1 sequence (P35354 18-604): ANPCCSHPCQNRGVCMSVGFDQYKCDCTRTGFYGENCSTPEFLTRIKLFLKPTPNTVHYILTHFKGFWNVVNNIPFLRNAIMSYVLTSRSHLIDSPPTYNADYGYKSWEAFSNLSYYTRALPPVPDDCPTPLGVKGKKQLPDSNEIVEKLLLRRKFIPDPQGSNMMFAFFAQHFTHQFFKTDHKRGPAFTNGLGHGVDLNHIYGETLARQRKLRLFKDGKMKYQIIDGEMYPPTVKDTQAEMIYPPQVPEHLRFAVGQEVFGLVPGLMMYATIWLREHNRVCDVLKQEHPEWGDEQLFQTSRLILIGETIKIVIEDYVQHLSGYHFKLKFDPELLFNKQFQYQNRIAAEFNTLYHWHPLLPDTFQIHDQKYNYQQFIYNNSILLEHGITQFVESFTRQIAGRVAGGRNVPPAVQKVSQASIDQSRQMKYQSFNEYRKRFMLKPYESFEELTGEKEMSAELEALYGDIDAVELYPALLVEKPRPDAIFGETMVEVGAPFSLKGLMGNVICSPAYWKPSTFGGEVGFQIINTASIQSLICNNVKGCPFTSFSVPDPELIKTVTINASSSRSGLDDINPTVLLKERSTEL
Briefly: COX-2 enzyme assay (EIA kit, PGF2α readout). Format: biochemical. The protocol:
(§1) The ability of compounds to inhibit ovine COX-1 and human COX-2 was determined using a commercially available enzyme immunoassay (EIA) kit (catalog no. 701090 (COX-1); 701080 (COX-2) Cayman Chemical Co., Ann Arbor, Mich., USA) according to the manufacturer's protocol. COX catalyzes the first step in the biosynthesis of AA to PGH2. PGF2α, produced from PGH2 by reduction with stannous chloride, was measured by EIA (ACE™ competitive EIA, Cayman Chemical, Ann Arbor, Mich., USA). Briefly, to a series of supplied reaction buffer solutions [960 μl 0.1 M Tris-HCl (pH 8.0) containing 5 mM EDTA and 2 mM phenol] with either COX-1 or COX-2 (10 μl) enzyme in the presence of heme (10 μl), 10 μl of various concentrations of test drug solutions were added. These solutions were incubated for 15 min at 37° C. and subsequently 10 μl AA solution (100 μM) was added. The COX reaction was stopped by the addition of 30 μl stannus chloride after 2 min, mixed immediately, supernatants were 2000 fold diluted. The produced PGF2α was measured by EIA. This assay is based on the competition between PGs and a PG-acetylcholinesterase conjugate (PG tracer) for a limited amount of PG antiserum. The amount of PG tracer that is able to bind to the PG antiserum is inversely proportional to the concentration of PGs in the wells since the concentration of the PG tracer is held at a constant while the concentration of PGs varies. The specific antiserum-PG complex bound to a mouse anti-rabbit IgG that had been previously attached to the well. The plate was washed to remove any unbound reagents and 200 μl Ellman's reagent (5,5′-dithiobis-(2-nitrobenzoic acid), which contains the substrate to acetylcholine esterase, was added to the well. The product of this enzymatic reaction generates a distinct yellow color that absorbs at 406 nm. The intensity of this color, determined by spectrophotometry, is proportional to the amount of PG tracer bound to the well, which is inversely proportional to the amount of PGs present in the well during the incubation. Percent inhibition was calculated by the comparison of the compounds treated to the various control incubations.
(§2) Dose-response curves were generated using XLFit (IDBS, Surrey, UK) or Prism (GraphPad Software, La Jolla, Calif., US) to calculate IC50 values for each compound tested.

For the next test, the target named is T2, COX-2 (Mus musculus, UniProt Q05769).
T2 construct: endogenous in cells; host or cells: RAW264.7 murine macrophages, stimulated with LPS and IFN-g
T2 sequence (Q05769 18-604): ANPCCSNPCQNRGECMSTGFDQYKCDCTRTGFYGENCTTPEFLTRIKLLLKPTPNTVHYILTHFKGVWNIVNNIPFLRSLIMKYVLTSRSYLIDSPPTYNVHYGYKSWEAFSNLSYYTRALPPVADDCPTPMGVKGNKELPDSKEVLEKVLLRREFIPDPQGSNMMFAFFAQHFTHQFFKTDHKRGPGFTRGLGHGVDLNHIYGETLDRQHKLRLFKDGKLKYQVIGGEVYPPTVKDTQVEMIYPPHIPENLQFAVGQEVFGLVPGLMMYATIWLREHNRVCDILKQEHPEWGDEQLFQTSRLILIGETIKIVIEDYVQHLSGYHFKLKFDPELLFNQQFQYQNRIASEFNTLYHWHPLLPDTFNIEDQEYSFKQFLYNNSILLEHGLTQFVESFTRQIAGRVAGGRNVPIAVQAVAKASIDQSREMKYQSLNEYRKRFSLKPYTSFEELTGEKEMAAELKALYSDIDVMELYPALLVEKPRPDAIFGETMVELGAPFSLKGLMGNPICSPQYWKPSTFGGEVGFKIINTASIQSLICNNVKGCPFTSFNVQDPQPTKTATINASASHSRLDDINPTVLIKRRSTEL
Briefly: Cell-based COX-2 assay (PGE2 in LPS/IFN-g stimulated RAW264.7 cells). The note with it: RAW264.7 murine macrophages, 1 μg/ml LPS and 10 U/ml IFN-g for 7 h, PGE2 readout. The procedure: RAW264.7 murine macrophages were obtained from the Cell Bank of Shanghai Institute of Biochemistry and Cell Biology, Chinese Academy of Sciences (Shanghai, China) and cultured in Dulbecco's modified Eagle's medium containing 100 U/ml penicillin and 100 μg/ml streptomycin at 37° C. in 5% CO2.
RAW264.7 cells were plated at a density of 2.5×10^5/ml cells in a 96-well plate with 0.1 ml of culture medium per well and cultured overnight. The cells were pre-incubated for 30 min with various doses of compounds and stimulated for 7 h with 1 μg/ml LPS and 10 U/ml IFN-g. The cell culture supernatants were collected immediately following treatment and centrifuged at 1,000 rpm for 5 min to remove the particulate matter. PGE2 was determined using a Prostaglandin E2 assay kit (catalog no. 62P2APEB; Cisbio Co.,). 10 μL of cell supernatant was transferred to a 384-well low volume plate (e.g. Corning® 3544), 5 μL of PGE2-d2 was added, followed by 5 μL anti-PGE2 Cryptate as a negative control. Replace the standard by 10 μL of diluent and PGE2-d2 by 5 μL of reconstitution buffer, Cal0 (for positive control), replace the standard by 10 μL of diluent. Incubate at 4° C. overnight. After centrifuging at 1,000 rpm for 1 min, the dual fluorescence emissions of 615 and 665 nm with a 320 nm excitation were measured using an Envision plate reader (Perkin Elmer, Shelton, Conn.). The results are expressed as the ratio of 665 nm/615 nm emissions.
as §2

A further test concerns the target T3, ovine COX-1 (Ovis aries, UniProt P05979).
T3 sequence (P05979 25-600): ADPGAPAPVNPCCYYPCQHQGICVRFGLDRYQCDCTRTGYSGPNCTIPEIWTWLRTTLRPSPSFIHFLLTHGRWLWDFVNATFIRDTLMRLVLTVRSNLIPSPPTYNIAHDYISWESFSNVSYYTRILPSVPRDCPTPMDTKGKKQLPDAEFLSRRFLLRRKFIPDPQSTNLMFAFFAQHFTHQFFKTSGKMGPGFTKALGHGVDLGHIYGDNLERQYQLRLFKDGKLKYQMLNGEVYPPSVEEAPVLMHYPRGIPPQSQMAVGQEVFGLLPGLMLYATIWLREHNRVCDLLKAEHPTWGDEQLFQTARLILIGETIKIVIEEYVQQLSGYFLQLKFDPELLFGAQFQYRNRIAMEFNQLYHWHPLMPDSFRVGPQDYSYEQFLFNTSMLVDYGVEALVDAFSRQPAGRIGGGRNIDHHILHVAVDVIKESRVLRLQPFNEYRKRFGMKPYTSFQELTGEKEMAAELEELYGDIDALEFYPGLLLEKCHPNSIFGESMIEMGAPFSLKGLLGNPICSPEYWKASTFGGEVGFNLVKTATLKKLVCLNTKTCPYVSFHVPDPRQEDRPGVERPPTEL
Nature of the test: biochemical. The following applies: ovine COX-1 enzyme, EIA; read-out: COX-1 IC50 (μm) enzyme. The protocol:
as §1, §2

[1] abbreviates: human COX-2 enzyme, EIA, 15 min pre-incubation at 37° C., read-out: COX-2 IC50 (μM) enzyme.

Regarding `COc1ccc2c(c1)c(CC(=O)NCCCCCCNC(=O)[c-]1cccc1)c(C)n2C(=O)c1ccc(Cl)cc1.[C-]#[O+].[C-]#[O+].[C-]#[O+].[Re+]` [Compound 242], the values for the IC50 at human COX-2 (setting [1]), against COX-2 and on ovine COX-1 were 0.3 µM, 0.4 µM and greater than 30 µM, respectively.
Consider `COc1ccc2c(c1)c(CC(=O)NCCCOCCC[N+]13CC[S][Re-]14(=[O])[S]CC[N]4C(=O)C3)c(C)n2C(=O)c1ccc(Cl)cc1` (stereo not drawn) [Compound 266], for which the IC50 is 0.6 µM on human COX-2 (setting [1]) and 0.2 µM at COX-2.
As to `COc1ccc2c(c1)c(CC(=O)NCCCOCC[N+]13CC[S][Re-]14(=[O])[S]CC[N]4C(=O)C3)c(C)n2C(=O)c1ccc(Cl)cc1` (stereo not drawn) [Compound 267], the IC50 is greater than 30 µM at human COX-2 (setting [1]) and 0.3 µM against COX-2.
In the case of `COc1ccc2c(c1)c(CC(=O)NCCCS(=O)(=O)CCC[N+]13CC[S][Re-]14(=[O])[S]CC[N]4C(=O)C3)c(C)n2C(=O)c1ccc(Cl)cc1` (stereo not drawn) [Compound 268], the IC50 at human COX-2 (setting [1]) was greater than 30 µM; on COX-2, greater than 10 µM.
Consider `COc1ccc2c(c1)c(CC(=O)NCCOCCOCC[N+]13CC[S][Re-]14(=[O])[S]CC[N]4C(=O)C3)c(C)n2C(=O)c1ccc(Cl)cc1` (stereo not drawn) [Compound 269], for which the IC50 at human COX-2 (setting [1]) is 0.5 µM; against COX-2 it was 0.9 µM.
Turning to `COc1ccc2c(c1)c(CC(=O)NCCC(C)(C)CC[N+]13CC[S][Re-]14(=[O])[S]CC[N]4CC3)c(C)n2C(=O)c1ccc(Cl)cc1` (stereo not drawn) [Compound 307], the IC50 on human COX-2 (setting [1]) is greater than 30 µM; at COX-2, 0.5 µM.
For `COc1ccc2c(c1)c(CC(=O)NCCCCCNC(=O)c1ccc[cH-]1)c(C)n2C(=O)c1ccc(Cl)cc1.[C-]#[O+].[C-]#[O+].[C-]#[O+].[Re+]` [Compound 308] the same measures were 0.9 µM and 0.2 µM.
Take `COc1ccc2c(c1)c(CC(=O)NCCC(C)(C)CCNC(=O)c1ccc[cH-]1)c(C)n2C(=O)c1ccc(Cl)cc1.[C-]#[O+].[C-]#[O+].[C-]#[O+].[Re+]` [Compound 309]: the figures for the IC50 at human COX-2 (setting [1]) and against COX-2 were 0.5 µM and 0.3 µM, respectively.
On to `COc1ccc2c(c1)c(CC(=O)NCCCOCCCNC(=O)c1ccc[cH-]1)c(C)n2C(=O)c1ccc(Cl)cc1.[C-]#[O+].[C-]#[O+].[C-]#[O+].[Re+]` [Compound 310], for which the IC50 on human COX-2 (setting [1]) was greater than 30 µM; at COX-2 it was 0.2 µM.
In the case of `COc1ccc2c(c1)c(CC(=O)NCCCCC(C)(C)NC(=O)c1ccc[cH-]1)c(C)n2C(=O)c1ccc(Cl)cc1.[C-]#[O+].[C-]#[O+].[C-]#[O+].[Re+]` [Compound 312], the figures for the IC50 at human COX-2 (setting [1]) and against COX-2 were 0.1 µM and 0.4 µM, respectively.
In the case of `COc1ccc2c(c1)c(CC(=O)N[C@H](C)CCCCC[N+]13CC[S][Re-]14(=[O])[S]CC[N]4C(=O)C3)c(C)n2C(=O)c1ccc(Cl)cc1` (stereo partly drawn) [Compound 328], the concentration for half-maximal inhibition (IC50) on human COX-2 (setting [1]) is 0.6 µM; against COX-2, 0.1 µM.
As to `COc1ccc2c(c1)c(CC(=O)NCCC=CCC[N+]13CC[S][Re-]14(=[O])[S]CC[N]4C(=O)C3)c(C)n2C(=O)c1ccc(Cl)cc1` (stereo not drawn) [Compound 341], the figures for the 50% inhibitory concentration (IC50) at human COX-2 (setting [1]) and at COX-2 were 0.8 µM and 0.3 µM, respectively.
For `[2H]C([2H])([2H])Oc1ccc2c(c1)c(CC(=O)NCCCCCC[N+]13CC[S][Re-]14(=[O])[S]CC[N]4C(=O)C3)c(C)n2C(=O)c1ccc(Cl)cc1` (stereo not drawn) [Compound 346], the IC50 on human COX-2 (setting [1]) worked out at 0.3 µM; on COX-2, 0.2 µM.
Take `COc1ccc2c(c1)c(CC(=O)NCCCCCC[N+]13CC[S][Re-]14(=[O])[S]CC[N]4C(=O)C3)c(C(F)(F)F)n2C(=O)c1ccc(Cl)cc1` (stereo not drawn) [Compound 351]: the figures for the IC50 at human COX-2 (setting [1]) and against COX-2 were greater than 30 µM and 0.4 µM, respectively.
Consider `COc1ccc2c(c1)c(CCNC(=O)CCCCC[N+]13CC[S][Re-]14(=[O])[S]CC[N]4C(=O)C3)c(C)n2C(=O)c1ccc(Cl)cc1` (stereo not drawn) [Compound 359], for which the IC50 stood at 0.6 µM on human COX-2 (setting [1]) and 0.2 µM at COX-2.
Consider `NS(=O)(=O)c1ccc(-n2nc(CNC(=O)c3ccc[cH-]3)cc2-c2ccc(F)cc2)cc1.[C-]#[O+].[C-]#[O+].[C-]#[O+].[Re+]` [Compound 365], for which the IC50 on human COX-2 (setting [1]) is 7.9 µM; at COX-2 it was 1.1 µM.
For `NS(=O)(=O)c1ccc(-n2nc(CNC(=O)CCCCC[N+]34CC[S][Re-]35(=[O])[S]CC[N]5C(=O)C4)cc2-c2ccc(F)cc2)cc1` (stereo not drawn) [Compound 367], the results for the IC50 against human COX-2 and at COX-2 were 4.5 µM and greater than 10 µM, respectively.
For `COc1ccc2c(c1)c(CCNCc1ccccn1)c(C)n2C(=O)c1ccc(Cl)cc1` [Compound 369], at ovine COX-1, the IC50 is greater than 30 µM.
